Format in all cases: cell-based
The test system of assay [1] is primary human fibroblasts derived from IPF patients (LL29 cells). Kind of assay: Inhibition of fibrotic process: αSMA staining in TGF-β1 treated LL29 fibroblasts. The conditions noted are these: Fibroblast; for EC50: 96 h, TGF-β1 20 ng/mL, 4 days, % cells positive for αSMA. In outline:
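LL29 cells at 1,500/well in F12 with 1% FBS, compounds at 1 μM–1.87 nM (11-point, 0.1% DMSO), TGF-β1 20 ng/mL added 1 h later, 4 days at 37 °C. SYTOX-positive cells excluded; % αSMA-positive cells by immunofluorescence imaging, normalized to TGF-β1/DMSO wells, triplicates fitted for EC50; above 10 μM, % inhibition at 10 μM given.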

Assay [2] deals with Wnt activity (Sp5-Luc reporter, SW480 colon carcinoma cells). Kind of assay: Sp5-Luc reporter gene screening assay for Wnt activity in SW480 cells. The conditions noted are these: Homo sapiens; for EC50: luminescence, overnight incubation; for inhibition at 10 µM: given for EC50 >10 μM, read-out: percent inhibition at 10 μM. An outline of the steps: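 Luminescence (BrightGlo) was normalised to DMSO-only wells and fitted with a four-parameter variable-slope model for EC50; beyond 10 μM, % inhibition at 10 μM is given. Stable Sp5-Luc SW480 reporter cells, 4,000/well in 1% FBS, were exposed overnight at 37 °C to compounds, top 10 μM, 1:3 dilutions, 0.1% DMSO.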

Another assay relates to SW480 colon cancer cells. Description: Cell viability assay (CellTiter-Blue) in SW480 colon cancer cells. The conditions noted are these: Homo sapiens; for EC50: 96 h, four days, CellTiter-Blue; for inhibition at 10 µM: given for EC50 >10 μM, read-out: percent inhibition at 10 μM. An outline of the steps: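 SW480 cells (~2×10^3 per well) were exposed to compound for four days at 37 °C/5% CO2, using 8-point 1:3 dilutions from 10 μM to 0.0045 μM in duplicate. Viability was read by resazurin reduction (CellTiter-Blue, ~3 h, Ex 560/Em 590 nm). EC50 came from non-linear regression; above 10 μM, percent inhibition at 10 μM is given.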

The structures appear in SMILES notation.

Turning to `Nc1cncc(-c2ccc3[nH]nc(-c4cc5c(-c6ccncc6)nccc5[nH]4)c3n2)c1` [Compound 115, 5-(3-(4-(Pyridin-4-yl)-1H-pyrrolo[3,2-c]pyridin-2-yl)-1H-pyrazolo[4,3-b]pyridin-5-yl)pyridin-3-amine], the values for the EC50 (in assay [1]; in assay [2]; in the assay on SW480 colon cancer cells) were 436 nM, 452 nM and above 10000 nM, respectively. For the same compound, in the assay with SW480 colon cancer cells, the inhibition at 10 µM is 5.4%.
As for `c1cncc(-c2ccc3[nH]nc(-c4cc5c(N6CCCCC6)nccc5[nH]4)c3n2)c1` [Compound 172, 3-(4-(Piperidin-1-yl)-1H-pyrrolo[3,2-c]pyridin-2-yl)-5-(pyridin-3-yl)-1H-pyrazolo[4,3-b]pyridine], the EC50 worked out at 89 nM in assay [1], 411 nM in assay [2] and 543 nM in the assay on SW480 colon cancer cells.
The matching figures for `CN(C)Cc1cncc(-c2ccc3[nH]nc(-c4cc5c(N6CCCCC6)nccc5[nH]4)c3n2)c1` [Compound 181, N,N-Dimethyl-1-(5-(3-(4-(piperidin-1l-yl)-1H-pyrrolo[3,2-c]pyridin-2-yl)-1H-pyrazolo[4,3-b]pyridin-5-yl)pyridin-3-yl)methanamine]: 1590 nM, 4160 nM and 2700 nM.
Regarding `CCCCC(=O)Nc1cncc(-c2ccc3[nH]nc(-c4cc5c(N6CCCCC6)nccc5[nH]4)c3n2)c1` [Compound 187, N-(5-(3-(4-(Piperidin-1-yl)-1H-pyrrolo[3,2-c]pyridin-2-yl)-1H-pyrazolo[4,3-b]pyridin-5-yl)pyridin-3-yl)pentanamide], the figures for the EC50 (in assay [1]; in assay [2]; in the assay on SW480 colon cancer cells) were 2220 nM, above 10000 nM and 4460 nM, respectively. Besides, the inhibition at 10 µM in assay [2] was found to be 42.2%.
As to `FC1(F)CCN(Cc2cncc(-c3ccc4[nH]nc(-c5cc6c(N7CCCCC7)nccc6[nH]5)c4n3)c2)C1` [Compound 194, 5-(5-((3,3-Difluoropyrrolidin-1-yl)methyl)pyridin-3-yl)-3-(4-(piperidin-1-yl)-1H-pyrrolo[3,2-c]pyridin-2-yl)-1H-pyrazolo[4,3-b]pyridine], the EC50 in assay [1] stood at 1030 nM; in assay [2], 3600 nM; with SW480 colon cancer cells it was 1900 nM.
On to `c1ccc(-c2ccc3[nH]nc(-c4cc5c(N6CCCCC6)nccc5[nH]4)c3n2)nc1` [Compound 196, 3-(4-(Piperidin-1-yl)-1H-pyrrolo[3,2-c]pyridin-2-yl)-5-(pyridin-2-yl)-1H-pyrazolo[4,3-b]pyridine], for which the half-maximal effective concentration (EC50) in assay [1] was 270 nM; in assay [2] it was 3380 nM; with SW480 colon cancer cells it was 2830 nM.
`CC(C)CC(=O)Nc1cncc(-c2ccc3[nH]nc(-c4cc5c(N6CCN(C)CC6)nccc5[nH]4)c3n2)c1` [Compound 226, 3-Methyl-N-(5-(3-(4-(4-methylpiperazin-1-yl)-1H-pyrrolo[3,2-c]pyridin-2-yl)-1H-pyrazolo[4,3-b]pyridin-5-yl)pyridin-3-yl)butanamide]: the concentration giving a half-maximal response (EC50) is 325 nM in assay [1], 3940 nM in assay [2] and above 10000 nM in the assay on SW480 colon cancer cells. Besides, the inhibition at 10 µM with SW480 colon cancer cells came to 37.8%.
For `Cc1ccncc1-c1ccc2[nH]nc(-c3cc4c(N5CCN(C)CC5)nccc4[nH]3)c2n1` [Compound 229, 3-(4-(4-Methylpiperazin-1l-yl)-1H-pyrrolo[3,2-c]pyridin-2-yl)-5-(4-methylpyridin-3-yl)-1H-pyrazolo[4,3-b]pyridine], the results for the concentration giving a half-maximal response (EC50) (in assay [1]; in assay [2]; in the assay with SW480 colon cancer cells) were 949 nM, 828 nM and 824 nM, respectively.
On to `CN1CCN(c2nccc3[nH]c(-c4n[nH]c5ccc(-c6cncc(NC(=O)c7ccccc7)c6)nc45)cc23)CC1` [Compound 235, N-(5-(3-(4-(4-Methylpiperazin-1l-yl)-1H-pyrrolo[3,2-c]pyridin-2-yl)-1H-pyrazolo[4,3-b]pyridin-5-yl)pyridin-3-yl)benzamide], for which the EC50 was 2250 nM in assay [1], above 10000 nM in assay [2] and above 10000 nM in the assay with SW480 colon cancer cells. Moreover, the inhibition at 10 µM in assay [2] was determined as 49.1%; with SW480 colon cancer cells, 29.1%.
Consider `CN1CCN(c2nccc3[nH]c(-c4n[nH]c5ccc(-c6cncc(CN7CCCCC7)c6)nc45)cc23)CC1` [Compound 239, 3-(4-(4-methylpiperazin-1-yl)-1H-pyrrolo[3,2-c]pyridin-2-yl)-5-(5-(piperidin-1-ylmethyl)pyridin-3-yl)-1H-pyrazolo[4,3-b]pyridine], for which the concentration for a half-maximal effect (EC50) in assay [1] came out at 1500 nM; in assay [2], 4280 nM; in the assay on SW480 colon cancer cells, 1850 nM.
With `CN1CCN(c2nccc3[nH]c(-c4n[nH]c5ccc(-c6cncnc6)nc45)cc23)CC1` [Compound 251, 3-(4-(4-Methylpiperazin-1l-yl)-1H-pyrrolo[3,2-c]pyridin-2-yl)-5-(pyrimidin-5-yl)-1H-pyrazolo[4,3-b]pyridine], the 50% effective concentration (EC50) turned out to be 1400 nM in assay [1], 3070 nM in assay [2] and 1130 nM in the assay on SW480 colon cancer cells.
Taken in the same sequence, the figures for `c1cncc(-c2ccc3[nH]nc(-c4cc5cnccc5[nH]4)c3n2)c1` [Compound 256, 5-(Pyridin-3-yl)-3-(1H-pyrrolo[3,2-c]pyridin-2-yl)-1H-pyrazolo[4,3-b]pyridine] were 243 nM, 251 nM and 161 nM.
Regarding `CCNCc1cncc(-c2ccc3[nH]nc(-c4cc5cnccc5[nH]4)c3n2)c1` [Compound 258, N-((5-(3-(1H-Pyrrolo[3,2-c]pyridin-2-yl)-1H-pyrazolo[4,3-b]pyridin-5-yl)pyridin-3-yl)methyl)ethanamine], the EC50 was above 10000 nM in assay [1], 3470 nM in assay [2] and 1660 nM in the assay on SW480 colon cancer cells. Moreover, the inhibition at 10 µM in assay [1] (given for EC50 >10 μM, TGF-β1, αSMA, 10 μM, read-out: percent inhibition at 10 μM) was determined as 22.6%.
Consider `CN(C)Cc1cncc(-c2ccc3[nH]nc(-c4cc5cnccc5[nH]4)c3n2)c1` [Compound 265, 1-(5-(3-(1H-Pyrrolo[3,2-c]pyridin-2-yl)-1H-pyrazolo[4,3-b]pyridin-5-yl)pyridin-3-yl)-N,N-dimethylmethanamine], for which the half-maximal effective concentration (EC50) in assay [1] was determined as 3120 nM; in assay [2] it was 1690 nM; in the assay on SW480 colon cancer cells it was 907 nM.
As for `FC1(F)CCN(Cc2cncc(-c3ccc4[nH]nc(-c5cc6cnccc6[nH]5)c4n3)c2)C1` [Compound 278, 5-(5-((3,3-Difluoropyrrolidin-1-yl)methyl)pyridin-3-yl)-3-(1H-pyrrolo[3,2-c]pyridin-2-yl)-1H-pyrazolo[4,3-b]pyridine], the EC50 turned out to be 68 nM in assay [1], 52 nM in assay [2] and 88 nM with SW480 colon cancer cells.
In the case of `c1cc2[nH]c(-c3n[nH]c4ccc(-c5cncnc5)nc34)cc2cn1` [Compound 279, 5-(Pyrimidin-5-yl)-3-(1H-pyrrolo[3,2-c]pyridin-2-yl)-1H-pyrazolo[4,3-b]pyridine], the EC50 turned out to be 2570 nM in assay [1], 2350 nM in assay [2] and 1470 nM in the assay with SW480 colon cancer cells.
As for `c1csc(-c2nccc3[nH]c(-c4n[nH]c5ccc(-c6ccncc6)nc45)cc23)c1` [Compound 354, 5-(Pyridin-4-yl)-3-(4-(thiophen-2-yl)-1H-pyrrolo[3,2-c]pyridin-2-yl)-1H-pyrazolo[4,3-b]pyridine], the EC50 in assay [1] is 2720 nM; in assay [2], above 10000 nM; in the assay on SW480 colon cancer cells it was 2820 nM. In addition, in assay [2], the inhibition at 10 µM is 33.6%.
